{
  "source": "patent US12085564B2",
  "about": "“Assay to determine in vivo receptor occupancy” (BRISTOL-MYERS SQUIBB COMPANY, priority 2018, dated 2024)",
  "biological_target": "T1, Recombinant BTK (Homo sapiens, UniProt Q06187)",
  "T1 construct": "purchased Life Technologies (Carlsbad, CA) PV3587",
  "T1 sequence (Q06187 whole entry)": "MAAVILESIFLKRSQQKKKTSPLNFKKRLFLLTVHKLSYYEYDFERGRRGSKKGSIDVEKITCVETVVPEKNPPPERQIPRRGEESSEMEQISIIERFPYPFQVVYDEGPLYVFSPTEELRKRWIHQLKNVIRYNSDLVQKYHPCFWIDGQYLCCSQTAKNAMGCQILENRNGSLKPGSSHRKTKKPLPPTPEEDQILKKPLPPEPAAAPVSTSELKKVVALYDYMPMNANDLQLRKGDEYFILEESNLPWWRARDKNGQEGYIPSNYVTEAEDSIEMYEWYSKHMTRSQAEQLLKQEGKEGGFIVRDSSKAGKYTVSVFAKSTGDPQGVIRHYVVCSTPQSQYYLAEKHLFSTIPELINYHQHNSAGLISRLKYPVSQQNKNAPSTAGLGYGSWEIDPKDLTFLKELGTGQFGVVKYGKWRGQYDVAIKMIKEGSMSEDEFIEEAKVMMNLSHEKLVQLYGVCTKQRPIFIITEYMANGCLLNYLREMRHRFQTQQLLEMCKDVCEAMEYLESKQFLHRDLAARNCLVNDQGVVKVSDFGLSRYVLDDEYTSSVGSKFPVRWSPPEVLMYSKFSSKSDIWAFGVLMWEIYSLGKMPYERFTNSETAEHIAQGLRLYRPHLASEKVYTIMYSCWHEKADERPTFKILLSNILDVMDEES",
  "assay": "Preparation of DB-BTK / QB-BTK reference standards: covalent reaction of recombinant BTK with excess drug or quencher",
  "assay_type": "biochemical",
  "conditions": "recombinant BTK 5.9 μM, excess amount of drug, RT for 1 h",
  "experimental": "Recombinant BTK (5.9 μM, 200 μL) was combined with 400 μL of PBS, and then spiked with 15 μL of 1.0 mg/mL drug solution (compound shown in FIG. 1A) in acetonitrile (2701 μM drug, 15 μL). The solution was then incubated at RT for 1 h, resulting in a DB-BTK concentration of 1919 nM.\nRecombinant BTK (5.9 μM, 200 μL) was combined with 400 μL of PBS, and then spiked with 15 μL of 1.0 mg/mL quencher solution (compound shown in FIG. 1B) in acetonitrile (2806 μM quencher, 15 μL). The solution was incubated at RT for 1 h, resulting in a QB-BTK concentration of 1919 nM.",
  "data": [
    {"compound": "CC#CC(=O)N[C@H]1CCCN(c2c(F)cc(C(N)=O)c3[nH]c(C)c(C)c23)C1", "note": "[compound shown in FIG. 1A]", "values": [
      {"measurement": "conversion of free BTK to DB-BTK", "result": "~100", "unit": "%"}
    ]}
  ]
}
